Laboratory results: patent US7981903B2, “2-[2-{phenylamino}-1H-pyrrolo[2,3-D]pyrimidin-4-yl)amino] benzamide derivatives as IGF-1R inhibitors for the treatment of cancer” (GlaxoSmithKline LLC, priority 2007, dated 2011)

Experiments:
[1] = biological target: T1, NIH-3T3 cells overexpressing human IGF-1R (Homo sapiens, UniProt P08069); assay: IGF-1R cellular autophosphorylation (DELFIA); assay type: cell-based
T1 construct: expressed in transfected cells; host or cells: NIH-3T3 (mouse fibroblasts)
T1 sequence (P08069 31-1367): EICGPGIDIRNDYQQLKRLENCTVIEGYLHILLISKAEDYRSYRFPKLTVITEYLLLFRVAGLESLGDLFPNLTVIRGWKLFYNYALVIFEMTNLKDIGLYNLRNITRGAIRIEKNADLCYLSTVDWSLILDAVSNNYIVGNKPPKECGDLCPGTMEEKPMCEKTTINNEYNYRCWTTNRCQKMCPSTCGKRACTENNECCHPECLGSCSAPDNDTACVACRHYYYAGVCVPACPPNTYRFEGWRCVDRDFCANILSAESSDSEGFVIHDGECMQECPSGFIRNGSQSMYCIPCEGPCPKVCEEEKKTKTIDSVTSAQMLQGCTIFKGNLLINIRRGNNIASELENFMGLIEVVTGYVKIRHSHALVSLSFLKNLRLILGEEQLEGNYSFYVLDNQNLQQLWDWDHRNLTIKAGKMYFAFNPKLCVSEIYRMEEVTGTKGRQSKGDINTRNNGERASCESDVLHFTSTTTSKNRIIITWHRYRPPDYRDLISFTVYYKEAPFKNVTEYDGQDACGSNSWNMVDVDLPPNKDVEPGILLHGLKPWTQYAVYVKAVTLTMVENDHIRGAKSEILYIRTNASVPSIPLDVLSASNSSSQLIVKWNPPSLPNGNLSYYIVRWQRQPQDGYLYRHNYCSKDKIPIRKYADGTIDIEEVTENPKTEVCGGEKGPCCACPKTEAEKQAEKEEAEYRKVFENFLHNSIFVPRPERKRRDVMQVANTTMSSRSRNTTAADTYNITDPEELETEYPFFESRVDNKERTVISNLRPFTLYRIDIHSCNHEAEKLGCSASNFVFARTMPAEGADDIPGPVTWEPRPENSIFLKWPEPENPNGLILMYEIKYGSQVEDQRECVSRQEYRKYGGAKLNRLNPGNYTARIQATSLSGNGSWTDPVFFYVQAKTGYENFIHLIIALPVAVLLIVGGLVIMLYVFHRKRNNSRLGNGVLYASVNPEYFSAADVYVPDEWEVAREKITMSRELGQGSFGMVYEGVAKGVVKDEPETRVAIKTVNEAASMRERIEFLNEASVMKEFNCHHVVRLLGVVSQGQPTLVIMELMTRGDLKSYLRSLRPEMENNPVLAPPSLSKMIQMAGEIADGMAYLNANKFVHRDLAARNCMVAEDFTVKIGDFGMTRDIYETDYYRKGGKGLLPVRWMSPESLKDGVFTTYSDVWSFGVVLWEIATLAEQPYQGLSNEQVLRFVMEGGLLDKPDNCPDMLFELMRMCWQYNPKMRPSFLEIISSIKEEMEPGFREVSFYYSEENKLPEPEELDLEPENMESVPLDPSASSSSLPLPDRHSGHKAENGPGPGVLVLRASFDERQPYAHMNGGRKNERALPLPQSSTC
Method in brief: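 Receptor autophosphorylation measured by DELFIA, capturing IGF-1R or IRβ and detecting with europium anti-pTyr, reported as percent of IGF-1- or insulin-stimulated signal. Compounds (30 uM to 1.5 nM) added 2 h before ligand, then 15 min stimulation (IGF-1 30 ng/ml or insulin 3 ug/ml).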

[2] = biological target: T2, human IGF1R (hIGF1R) (Homo sapiens, UniProt P08069); assay: TR-FRET kinase assay of purified hIGF1R; assay type: biochemical; settings: activated hIGF1R 0.5 nM, 10 μM ATP, values given as pIC50 category, read-out: IGF-1R pIC50 (converted)
T2 construct: containing amino acid residues 957-1367 of human IGF1R; made in house; host or cells: Sf9 cells (baculovirus)
T2 sequence (P08069 957-1367): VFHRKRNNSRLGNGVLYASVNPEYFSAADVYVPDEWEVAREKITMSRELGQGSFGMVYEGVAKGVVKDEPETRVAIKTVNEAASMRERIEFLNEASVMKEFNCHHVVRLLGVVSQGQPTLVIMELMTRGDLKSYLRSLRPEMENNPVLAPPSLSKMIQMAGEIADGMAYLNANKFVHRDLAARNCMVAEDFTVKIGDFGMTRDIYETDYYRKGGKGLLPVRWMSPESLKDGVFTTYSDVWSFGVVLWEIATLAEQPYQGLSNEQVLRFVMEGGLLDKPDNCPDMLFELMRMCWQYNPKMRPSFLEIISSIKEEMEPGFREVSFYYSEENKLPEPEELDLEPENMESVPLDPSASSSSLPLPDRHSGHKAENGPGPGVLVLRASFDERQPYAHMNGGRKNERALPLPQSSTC

[3] = biological target: T3, human IR (hIR) (Homo sapiens, UniProt P06213); assay: TR-FRET kinase assay of purified hIR; assay type: biochemical; settings: activated hIR 0.5 nM, 10 μM ATP, values given as pIC50 category
T3 construct: containing amino acid residues 979-1382 of human IR; made in house; host or cells: Sf9 cells (baculovirus), same process as hIGF1R
T3 sequence (P06213 979-1382): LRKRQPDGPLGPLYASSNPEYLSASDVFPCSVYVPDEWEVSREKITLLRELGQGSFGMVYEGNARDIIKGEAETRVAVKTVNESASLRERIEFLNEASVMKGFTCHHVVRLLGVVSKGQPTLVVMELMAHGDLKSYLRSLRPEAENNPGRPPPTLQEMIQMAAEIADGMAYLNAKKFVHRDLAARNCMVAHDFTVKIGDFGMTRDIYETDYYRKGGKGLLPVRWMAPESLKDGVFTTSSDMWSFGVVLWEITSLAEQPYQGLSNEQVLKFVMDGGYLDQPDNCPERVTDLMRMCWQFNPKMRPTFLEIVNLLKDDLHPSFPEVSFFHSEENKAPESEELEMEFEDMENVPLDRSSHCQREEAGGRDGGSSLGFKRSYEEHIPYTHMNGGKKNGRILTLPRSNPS

Compound | IC50 [1] [nM] | IC50 [2] [nM] | IC50 [3] [nM]
COc1cc2c(cc1Nc1nc(Nc3cccc(F)c3C(N)=O)c3cc[nH]c3n1)N(C(=O)CN1CCCCC1)CCC2 [Example 218, 2-fluoro-6-[(2-{[6-(methyloxy)-1-(1-piperidinylacetyl)-1,2,3,4-tetrahydro-7-quinolinyl]amino}-1H-pyrrolo[2,3-d]pyrimidin-4-yl)amino]benzamide] | < 100 | 0.251 to 1 | 0.251 to 1
CNC(=O)c1c(F)cccc1Nc1nc(Nc2cc3c(cc2OC)CCN3C(C)=O)nc2[nH]ccc12 [Example 135, 2-[(2-{[1-acetyl-5-(methyloxy)-2,3-dihydro-1H-indol-6-yl]amino}-1H-pyrrolo[2,3-d]pyrimidin-4-yl)amino]-6-fluoro-N-methylbenzamide] | > 500 | 5.01 to 200 | 5.01 to 158
CCN(CC)CC(=O)N1CCc2cc(OC)c(Nc3nc(Nc4cccc(F)c4C(=O)NC)c4cc[nH]c4n3)cc21 [Example 137, 2-[(2-{[1-(N,N-diethylglycyl)-5-(methyloxy)-2,3-dihydro-1H-indol-6-yl]amino}-1H-pyrrolo[2,3-d]pyrimidin-4-yl)amino]-6-fluoro-N-methylbenzamide] | 100 to 500 | 5.01 to 200 | 5.01 to 158
COc1cc2c(cc1Nc1nc(Nc3cccc(F)c3C(N)=O)c3cc[nH]c3n1)N(C(C)=O)CC2 [Example 134, 2-[(2-{[1-acetyl-5-(methyloxy)-2,3-dihydro-1H-indol-6-yl]amino}-1H-pyrrolo[2,3-d]pyrimidin-4-yl)amino]-6-fluorobenzamide] | 100 to 500 | 5.01 to 200 | 1.26 to 3.98
COc1cc2c(cc1Nc1nc(Nc3cccc(F)c3C(N)=O)c3cc[nH]c3n1)N(CCN(C)C)CC2 [Example 117, 2-[(2-{[1-[2-(dimethylamino)ethyl]-5-(methyloxy)-2,3-dihydro-1H-indol-6-yl]amino}-1H-pyrrolo[2,3-d]pyrimidin-4-yl)amino]-6-fluorobenzamide] | > 500 | 5.01 to 200 | 5.01 to 158
COc1cc2c(cc1Nc1nc(Nc3cccc(F)c3C(N)=O)c3cc(C)[nH]c3n1)N(C(=O)CN(C)C)CC2 [Example 262, 2-[(2-{[1-(N,N-dimethylglycyl)-5-(methyloxy)-2,3-dihydro-1H-indol-6-yl]amino}-6-methyl-1H-pyrrolo[2,3-d]pyrimidin-4-yl)amino]-6-fluorobenzamide] | 100 to 500 | 5.01 to 200 | 5.01 to 158
CNC(=O)c1c(F)cccc1Nc1nc(Nc2cc3c(cc2OC)CCN(C(C)C)C3)nc2[nH]ccc12 [Example 235, 2-fluoro-N-methyl-6-[(2-{[2-(1-methylethyl)-6-(methyloxy)-1,2,3,4-tetrahydro-7-isoquinolinyl]amino}-1H-pyrrolo[2,3-d]pyrimidin-4-yl)amino]benzamide] | > 500 | 5.01 to 200 | 1.26 to 3.98
COc1cc2c(cc1Nc1nc(Nc3cc(F)cc(F)c3C(N)=O)c3cc[nH]c3n1)N(C(=O)CN(C)C)CCC2 [Example 178, 2-[(2-{[1-(N,N-dimethylglycyl)-6-(methyloxy)-1,2,3,4-tetrahydro-7-quinolinyl]amino}-1H-pyrrolo[2,3-d]pyrimidin-4-yl)amino]-4,6-difluorobenzamide] | < 100 | 0.251 to 1 | 0.251 to 1
CNC(=O)c1c(F)cc(F)cc1Nc1nc(Nc2cc3c(cc2OC)CCN3C(=O)CN(C)C)nc2[nH]ccc12 [Example 190, 2-[(2-{[1-(N,N-dimethylglycyl)-5-(methyloxy)-2,3-dihydro-1H-indol-6-yl]amino}-1H-pyrrolo[2,3-d]pyrimidin-4-yl)amino]-4,6-difluoro-N-methylbenzamide] | < 100 | 0.251 to 1 | 0.251 to 1
CCN(C)CC(=O)N1CCCc2cc(OC)c(Nc3nc(Nc4cccc(F)c4C(=O)NC)c4cc[nH]c4n3)cc21 [Example 132, 2-[(2{-[1-(N-ethyl-N-methylglycyl)-6-(methyloxy)-1,2,3,4-tetrahydro-7-quinolinyl]amino}-1H-pyrrolo[2,3-d]pyrimidin-4-yl)amino]-6-fluoro-N-methylbenzamide] | < 100 | 5.01 to 200 | 1.26 to 3.98
COc1cc2c(cc1Nc1nc(Nc3cccc(F)c3C(N)=O)c3cc[nH]c3n1)N(C(=O)CCN(C)C)CCC2 [Example 214, 2-[(2-{[1-(N,N-dimethyl-β-alanyl)-6-(methyloxy)-1,2,3,4-tetrahydro-7-quinolinyl]amino}-1H-pyrrolo[2,3-d]pyrimidin-4-yl)amino]-6-fluorobenzamide] | 100 to 500 | 5.01 to 200 | 5.01 to 158
COc1cc2c(cc1Nc1nc(Nc3cccc(F)c3C(N)=O)c3cc[nH]c3n1)N(C(=O)CN1CCN(C(C)C)CC1)CC2 [Example 186, 2-fluoro-6-[(2-{[1-{[4-(1-methylethyl)-1-piperazinyl]acetyl}-5-(methyloxy)-2,3-dihydro-1H-indol-6-yl]amino}-1H-pyrrolo[2,3-d]pyrimidin-4-yl)amino]benzamide] | 100 to 500 | 5.01 to 200 | 5.01 to 158
CNC(=O)c1c(F)cccc1Nc1nc(Nc2cc3c(cc2OC)CCN3C(=O)CN(C)C)nc2[nH]cc(C)c12 [Example 258, 2-[(2-{[1-(N,N-dimethylglycyl)-5-(methyloxy)-2,3-dihydro-1H-indol-6-yl]amino}-5-methyl-1H-pyrrolo[2,3-d]pyrimidin-4-yl)amino]-6-fluoro-N-methylbenzamide] | 100 to 500 | 0.251 to 1 | 0.251 to 1
CCCN(CCC)[C@@H](C)C(=O)N1CCc2cc(OC)c(Nc3nc(Nc4cccc(F)c4C(N)=O)c4cc[nH]c4n3)cc21 [Example 192, 2-[(2-{[1-(N,N-dipropyl-L-alanyl)-5-(methyloxy)-2,3-dihydro-1H-indol-6-yl]amino}-1H-pyrrolo[2,3-d]pyrimidin-4-yl)amino]-6-fluorobenzamide] | < 100 | 5.01 to 200 | 1.26 to 3.98
CCCN1CCCC(c2ccc(Nc3nc(Nc4ccccc4C(N)=O)c4cc[nH]c4n3)c(OC)c2)C1 (stereo not drawn) [Example 3, 2-[(2-{[2-(methyloxy)-4-(1-propyl-3-piperidinyl)phenyl]amino}-1H-pyrrolo[2,3-d]pyrimidin-4-yl)amino]benzamide] | < 100 | 0.251 to 1 | 0.251 to 1
COc1cc2c(cc1Nc1nc(Nc3cccc(F)c3C(N)=O)c3cc[nH]c3n1)N(C(=O)[C@@H]1CCCN1C)CC2 [Example 147, 2-fluoro-6-[(2-{[5-(methyloxy)-1-(1-methyl-L-prolyl)-2,3-dihydro-1H-indol-6-yl]amino}-1H-pyrrolo[2,3-d]pyrimidin-4-yl)amino]benzamide] | 100 to 500 | 5.01 to 200 | 1.26 to 3.98
COc1cc2c(cc1Nc1nc(Nc3cccc(F)c3C(N)=O)c3cc[nH]c3n1)N(C(=O)CN1CCC1)CC2 [Example 143, 2-[(2-{[1-(1-azetidinylacetyl)-5-(methyloxy)-2,3-dihydro-1H-indol-6-yl]amino}-1H-pyrrolo[2,3-d]pyrimidin-4-yl)amino]-6-fluorobenzamide] | 100 to 500 | 0.251 to 1 | 0.251 to 1
CNC(=O)c1c(F)cccc1Nc1nc(Nc2cc3c(cc2OC)CCN3C(=O)COC)nc2[nH]ccc12 [Example 150, 2-fluoro-N-methyl-6-{[2-({5-(methyloxy)-1-[(methyloxy)acetyl]-2,3-dihydro-1H-indol-6-yl}amino)-1H-pyrrolo[2,3-d]pyrimidin-4-yl]amino}benzamide] | > 500 | 5.01 to 200 | 5.01 to 158
CN(C)CC(=O)Nc1ccc(F)c(Nc2nc(Nc3ccccc3C(N)=O)c3cc[nH]c3n2)c1 [Example 17, 2-{[2-({5-[(N,N-dimethylglycyl)amino]-2-fluorophenyl}amino)-1H-pyrrolo[2,3-d]pyrimidin-4-yl]amino}benzamide] | < 100 | 0.251 to 1 | 0.251 to 1
COc1cc2c(cc1Nc1nc(Nc3cccc(F)c3C(N)=O)c3cc[nH]c3n1)N(C(=O)CCN(C)C)CC2 [Example 118, 2-[(2-{[1-(N,N-dimethyl-b-alanyl)-5-(methyloxy)-2,3-dihydro-1H-indol-6-yl]amino}-1H-pyrrolo[2,3-d]pyrimidin-4-yl)amino]-6-fluorobenzamide] | 100 to 500 | 5.01 to 200 | 5.01 to 158
COc1cc(N2CCC(N3CCOCC3)CC2)ccc1Nc1nc(Nc2cc(F)ccc2C(N)=O)c2cc[nH]c2n1 [Example 78, 4-fluoro-2-{[2-({2-(methyloxy)-4-[4-(4-morpholinyl)-1-piperidinyl]phenyl}amino)-1H-pyrrolo[2,3-d]pyrimidin-4-yl]amino}benzamide] | < 100 | 0.251 to 1 | 1.26 to 3.98
COc1cc2c(cc1Nc1nc(Nc3cccc(F)c3C(N)=O)c3cc[nH]c3n1)CN(CCCN(C)C)CC2 [Example 232, 2-[(2-{[2-[3-(dimethylamino)propyl]-6-(methyloxy)-1,2,3,4-tetrahydro-7-isoquinolinyl]amino}-1H-pyrrolo[2,3-d]pyrimidin-4-yl)amino]-6-fluorobenzamide] | > 500 | 5.01 to 200 | 1.26 to 3.98
COc1cc2c(cc1Nc1nc(Nc3cccc(F)c3C(N)=O)c3cc[nH]c3n1)CN(C)CC2 [Example 121, 2-fluoro-6-[(2-{[2-methyl-6-(methyloxy)-1,2,3,4-tetrahydro-7-isoquinolinyl]amino}-1H-pyrrolo[2,3-d]pyrimidin-4-yl)amino]benzamide] | 100 to 500 | 5.01 to 200 | 1.26 to 3.98
